Experimental data: ChEMBL document CHEMBL6114998, “Design, Synthesis, and Pharmacological Evaluation of Quinazoline and Quinoline Derivatives as Potent ENPP1 Inhibitors for Cancer Immunotherapy” (J Med Chem, 2025)
Calls of active or inactive are those of the source. The calls are words filed in the database; no cut-off is given here.

Tests used:
THP-1 = assay: Activation of STING signalling pathway in human THP-1 cells assessed as increase in IFNB1 expression measured after 18 hrs in presence of cGAMP by qPCR analysis; type: cell-based; conditions: filed as activator, dose 3-1000 nM
CT26 [1] = assay: Antitumor activity against mouse CT26 cells allografted in female BALB/c mouse assessed as increase in infiltration of CD8+T cells in tumor tissue at 200 mg/kg QD, ip measured every 2 days for 12 days by immunohistochemical analysis; type: functional, organism-based; conditions: time 12.0 day
CT26 [2] = assay: Antitumor activity against mouse CT26 cells allografted in female BALB/c mouse assessed as decrease in M2-type macrophages in tumor tissue at 200 mg/kg QD, ip in presence of anti-PD-L1 antibody measured every 2 days for 12 days by immunohistochemical analysis; type: functional, organism-based; conditions: time 12.0 day
[3] = MRT (0 to t) in Sprague-Dawley rat at 10 mg/kg, iv measured upto 24 hrs by LC-MS/MS analysis; type: ADME, organism-based; conditions: in vivo
THP1-Dual KO-STING = assay: Activation of STING-mediated immune response in human THP1-Dual KO-STING cells assessed as cGAMP-induced ISRE activation at 1 uM preincubated with conditioned medium containing 36 hrs compound treated with human MDA-MB-231 cells and measured after 24 hrs by quanti-luc luciferase assay; type: cell-based; conditions: filed as activator, time 60.0 hrs
[4] = Half life in Sprague-Dawley rat at 10 mg/kg, iv measured upto 24 hrs by LC-MS/MS analysis; type: ADME, organism-based; conditions: in vivo
CT26 [5] = assay: Antitumor activity against mouse CT26 cells allografted in female BALB/c mouse assessed as decrease in M2-type macrophages in tumor tissue at 200 mg/kg QD, ip measured every 2 days for 12 days by immunohistochemical analysis; type: functional, organism-based; conditions: time 12.0 day
THP1-Dual = assay: Cytotoxicity against human THP1-Dual cells assessed as effect on cell viability at 3 to 1000 nM followed by addition of conditioned medium containing 36 hrs compound pretreated human MDA-MB-231 cells measured after 24 hrs by celltiter-glo assay; type: functional, cell-based; conditions: dose 3-1000 nM, time 60.0 hrs
[6] = Toxicity in female BALB/c mouse allografted with mouse CT26 cells assessed as change in body weight at 200 mg/kg QD, ip measured every 2 days for 12 days; type: organism-based; conditions: in vivo, 288 h, time 12 day
[7] = target: T1, Ectonucleotide pyrophosphatase/phosphodiesterase family member 1 (Homo sapiens, UniProt P22413); assay: Inhibition of recombinant human ENPP1 transfected in HEK293T cells using cGAMP as substrate at pH 7.5 measured after 3.5 hrs by luminescence based AMP-glo assay; type: cell-based
T1 sequence (P22413 whole entry): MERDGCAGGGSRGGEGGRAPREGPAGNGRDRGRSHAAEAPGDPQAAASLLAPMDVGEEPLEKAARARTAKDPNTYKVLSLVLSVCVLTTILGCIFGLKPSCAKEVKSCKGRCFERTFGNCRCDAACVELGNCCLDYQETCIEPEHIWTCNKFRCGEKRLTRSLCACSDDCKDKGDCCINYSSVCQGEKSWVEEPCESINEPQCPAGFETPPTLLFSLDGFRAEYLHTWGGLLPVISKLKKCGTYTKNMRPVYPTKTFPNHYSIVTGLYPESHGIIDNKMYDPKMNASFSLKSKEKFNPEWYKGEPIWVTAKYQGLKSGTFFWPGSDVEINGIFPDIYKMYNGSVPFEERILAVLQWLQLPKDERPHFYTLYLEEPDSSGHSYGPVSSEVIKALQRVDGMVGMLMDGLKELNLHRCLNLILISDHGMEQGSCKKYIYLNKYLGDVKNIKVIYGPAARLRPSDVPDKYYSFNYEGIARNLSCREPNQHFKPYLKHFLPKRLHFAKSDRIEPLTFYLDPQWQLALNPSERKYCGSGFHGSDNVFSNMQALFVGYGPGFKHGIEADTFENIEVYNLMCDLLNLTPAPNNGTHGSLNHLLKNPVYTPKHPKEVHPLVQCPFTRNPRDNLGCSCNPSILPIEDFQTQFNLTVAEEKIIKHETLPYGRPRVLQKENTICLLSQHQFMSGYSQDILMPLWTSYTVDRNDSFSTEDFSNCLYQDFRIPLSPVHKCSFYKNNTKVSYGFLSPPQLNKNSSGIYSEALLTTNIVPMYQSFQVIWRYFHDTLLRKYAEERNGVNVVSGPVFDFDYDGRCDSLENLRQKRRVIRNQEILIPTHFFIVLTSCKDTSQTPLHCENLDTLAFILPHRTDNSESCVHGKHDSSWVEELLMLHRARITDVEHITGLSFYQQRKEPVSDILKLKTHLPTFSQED

[8] = target: T1, Ectonucleotide pyrophosphatase/phosphodiesterase family member 1; assay: Inhibition of ENPP1 in human MDA-MB-231 cells using p-NPh-5TMP as substrate at pH 9.5 measured after 60 mins; type: cell-based
[9] = Toxicity in female BALB/c mouse allografted with mouse CT26 cells assessed as change in body weight at 200 mg/kg QD, ip in presence of anti-PD-L1 antibody measured every 2 days for 12 days; type: organism-based; conditions: in vivo, 288 h, time 12 day
CT26 [10] = assay: Antitumor activity against mouse CT26 cells allografted in female BALB/c mouse assessed as increase in M1-type macrophages in tumor tissue at 200 mg/kg QD, ip measured every 2 days for 12 days by immunohistochemical analysis; type: functional, organism-based; conditions: time 12.0 day
CT26 [11] = assay: Antitumor activity against mouse CT26 cells allografted in female BALB/c mouse assessed as increase in M1-type macrophages in tumor tissue at 200 mg/kg QD, ip measured every 2 days for 12 days by immunofluorescence analysis; type: functional, organism-based; conditions: time 12.0 day
CT26 [12] = assay: Antitumor activity against mouse CT26 cells allografted in female BALB/c mouse assessed as increase in CD8+T cells in tumor tissue at 200 mg/kg QD, ip in presence of anti-PD-L1 antibody measured every 2 days for 12 days by immunofluorescence analysis; type: functional, organism-based; conditions: time 12.0 day
[13] = AUC(0 to t) in Sprague-Dawley rat at 10 mg/kg, iv measured upto 24 hrs by LC-MS/MS analysis; type: ADME, organism-based; conditions: in vivo

Q: With `COc1cccc2c(N3CCC(O)(CNS(N)(=O)=O)CC3)ncnc12` as the molecule, how does the Activity (THP-1) read?
A: The Activity was “Dose-dependent-effect”.

Q: And the Activity (CT26 [1])?
A: Its Activity is “Active”.

Q: And the Activity (CT26 [2])?
A: Its Activity is “Active”.

Q: And the MRT last at 24 h [3]?
A: The MRT last at 24 h was 39.7 min.

Q: What about the Activity (THP1-Dual KO-STING) of the same molecule?
A: Its Activity is “Active”.

Q: And the half-life [4]?
A: The half-life was 46.7 min.

Q: What about the Activity (CT26 [5]) of the same molecule?
A: The Activity was “Active”.

Q: And the Activity (THP1-Dual)?
A: Its Activity is “Active”.

Q: And the Activity [6]?
A: Its Activity is “Non-toxic”.

Q: And the IC50 [7]?
A: Its IC50 is 8.05 nM.

Q: What about the IC50 [8] of the same molecule?
A: The IC50 was 1.53 nM.

Q: And the Activity [9]?
A: The Activity was “Non-toxic”.

Q: What about the Activity (CT26 [10]) of the same molecule?
A: Its Activity is “Active”.

Q: What about the Activity (CT26 [11]) of the same molecule?
A: Its Activity is “Active”.

Q: What about the Activity (CT26 [12]) of the same molecule?
A: The Activity was “Active”.

Q: And the AUC(0-t) at 24 h [13]?
A: Its AUC(0-t) at 24 h is 2030 ng·h/mL.
